Data taken from US10947574B2, “Method for producing fermented carotenoid using carotenoid-producing bacteria obtained by using cobalt-containing culturing medium” (ENEOS CORPORATION, priority 2015, dated 2021).

System: Paracoccus carotinifaciens strain E-396 (FERM BP-4283)
Experiment: Example 3: cobalt concentration series, growth (OD610) and carotenoid levels (HPLC)
Type: cell-based
Method: In the following examples, carotenoids were quantified by high performance liquid chromatography (HPLC) as follows.
Two columns of Inertsil SIL-100A, 5 μm (ϕ4.6 mm×250 mm) (GL Sciences Inc., Japan) were connected together for use as a column. For elution, a mixed solution of n-hexane, tetrahydrofuran and methanol (40:20:1) serving as a mobile phase was passed through the column at a flow rate of 1.0 mL per minute at a constant temperature around room temperature. For measurement, samples were each dissolved in tetrahydrofuran and diluted 100-fold with the mobile phase, and 20 μL aliquots of the resulting dilutions were injected into the column. The column eluates were detected at a wavelength of 470 nm. As a standard for quantification, astaxanthin (SIGMA, Cat. No. A9335) was used. The astaxanthin concentration of the standard solution was determined using the following equation after measuring the absorbance (A) of the standard solution at 477 nm and the area percentage % (B) of the astaxanthin peak in HPLC analysis under the above conditions.
Subsequently, a medium of the following composition (glucose 30 g/L, filtered corn steep liquor 30 g/L, ammonium sulfate 1.5 g/L, potassium dihydrogen phosphate 1.5 g/L, disodium hydrogen phosphate dodecahydrate 3.8 g/L, calcium chloride dihydrate 5.0 g/L, magnesium sulfate heptahydrate 0.7 g/L, iron sulfate heptahydrate 1.0 g/L, silicon-based defoaming agent 0.2 g/L) was dispensed in 7.2 ml volumes into cotton-plugged test tubes having an inner diameter of 18 mm to prepare 12 test tubes containing a test tube medium for production. The ingredients used to prepare the test tube medium for production were obtained from lots where microbial cells had been confirmed not to grow well.
The resulting culture solution was then inoculated in 0.05 ml volumes into the 12 types of test tube media for production having different cobalt concentrations, and cultured under shaking at 28° C. for 4 days at 300 spm.
The cobalt concentration in the cobalt chloride-free medium and the concentration of cobalt chloride added to each medium were summed up to calculate the concentration of cobalt present in each medium (Table 6).
After being cultured for 4 days, the culture solutions were each measured for microbial cell growth by OD610 and measure for carotenoid levels by HPLC. […] Moreover, FIGS. 2 to 4 show graphs plotted in enlarged scale for the high and low concentration ranges of cobalt present in the medium.

[1] = cobalt added 0.00042 μmol/L, present 0.0024 μmol/L
[2] = cobalt added 0.0042 μmol/L, present 0.0062 μmol/L
[3] = cobalt added 0.0084 μmol/L, present 0.0104 μmol/L
[4] = cobalt added 0.021 μmol/L, present 0.023 μmol/L
[5] = cobalt added 0.042 μmol/L, present 0.044 μmol/L
[6] = cobalt added 0.42 μmol/L, present 0.42 μmol/L
[7] = cobalt added 1.1 μmol/L, present 1.05 μmol/L
[8] = cobalt added 4.2 μmol/L, present 4.2 μmol/L
[9] = cobalt added 8.4 μmol/L, present 8.4 μmol/L
[10] = cobalt added 21 μmol/L, present 21 μmol/L
[11] = cobalt added 42 μmol/L, present 42 μmol/L

O.O.O.O.O.O.[Cl-].[Cl-].[Co+2] [Cobalt chloride hexahydrate]
Carotenoid: 3-Hydroxyechinenone [1]: 0.1 mg/L
Carotenoid: Adonirubin [1]: 0.0 mg/L
Carotenoid: Adonixanthin [1]: 3.0 mg/L
Carotenoid: Astaxanthin [1]: 0.8 mg/L
Carotenoid: Asteroidenone [1]: 0.1 mg/L
Carotenoid: Canthaxanthin [1]: 0.0 mg/L
Carotenoid: Echinenone [1]: 0.0 mg/L
Carotenoid: β-Carotene [1]: 0.2 mg/L
OD610 [1]: 5
Total carotenoid [1]: 4.1 mg/L
Carotenoid: 3-Hydroxyechinenone [2]: 0.3 mg/L
Carotenoid: Adonirubin [2]: 0.4 mg/L
Carotenoid: Adonixanthin [2]: 7.0 mg/L
Carotenoid: Astaxanthin [2]: 3.6 mg/L
Carotenoid: Asteroidenone [2]: 0.3 mg/L
Carotenoid: Canthaxanthin [2]: 0.1 mg/L
Carotenoid: Echinenone [2]: 0.2 mg/L
Carotenoid: β-Carotene [2]: 1.0 mg/L
OD610 [2]: 9
Total carotenoid [2]: 12.9 mg/L
Carotenoid: 3-Hydroxyechinenone [3]: 0.4 mg/L
Carotenoid: Adonirubin [3]: 1.3 mg/L
Carotenoid: Adonixanthin [3]: 4.0 mg/L
Carotenoid: Astaxanthin [3]: 11.7 mg/L
Carotenoid: Asteroidenone [3]: 0.4 mg/L
Carotenoid: Canthaxanthin [3]: 0.9 mg/L
Carotenoid: Echinenone [3]: 0.4 mg/L
Carotenoid: β-Carotene [3]: 1.1 mg/L
OD610 [3]: 18
Total carotenoid [3]: 20.2 mg/L
Carotenoid: 3-Hydroxyechinenone [4]: 0.5 mg/L
Carotenoid: Adonirubin [4]: 8.3 mg/L
Carotenoid: Adonixanthin [4]: 3.1 mg/L
Carotenoid: Astaxanthin [4]: 26.5 mg/L
Carotenoid: Asteroidenone [4]: 0.4 mg/L
Carotenoid: Canthaxanthin [4]: 3.4 mg/L
Carotenoid: Echinenone [4]: 1.4 mg/L
Carotenoid: β-Carotene [4]: 1.0 mg/L
OD610 [4]: 34
Total carotenoid [4]: 44.5 mg/L
Carotenoid: 3-Hydroxyechinenone [5]: 0.5 mg/L
Carotenoid: Adonirubin [5]: 6.4 mg/L
Carotenoid: Adonixanthin [5]: 3.5 mg/L
Carotenoid: Astaxanthin [5]: 25.5 mg/L
Carotenoid: Asteroidenone [5]: 0.4 mg/L
Carotenoid: Canthaxanthin [5]: 2.6 mg/L
Carotenoid: Echinenone [5]: 1.2 mg/L
Carotenoid: β-Carotene [5]: 0.8 mg/L
OD610 [5]: 35
Total carotenoid [5]: 40.9 mg/L
Carotenoid: 3-Hydroxyechinenone [6]: 0.7 mg/L
Carotenoid: Adonirubin [6]: 5.8 mg/L
Carotenoid: Adonixanthin [6]: 3.2 mg/L
Carotenoid: Astaxanthin [6]: 28.6 mg/L
Carotenoid: Asteroidenone [6]: 0.5 mg/L
Carotenoid: Canthaxanthin [6]: 2.3 mg/L
Carotenoid: Echinenone [6]: 1.2 mg/L
Carotenoid: β-Carotene [6]: 0.8 mg/L
OD610 [6]: 37
Total carotenoid [6]: 42.9 mg/L
Carotenoid: 3-Hydroxyechinenone [7]: 0.4 mg/L
Carotenoid: Adonirubin [7]: 7.0 mg/L
Carotenoid: Adonixanthin [7]: 1.7 mg/L
Carotenoid: Astaxanthin [7]: 26.8 mg/L
Carotenoid: Asteroidenone [7]: 0.3 mg/L
Carotenoid: Canthaxanthin [7]: 3.1 mg/L
Carotenoid: Echinenone [7]: 1.2 mg/L
Carotenoid: β-Carotene [7]: 0.8 mg/L
OD610 [7]: 37
Total carotenoid [7]: 41.3 mg/L
Carotenoid: 3-Hydroxyechinenone [8]: 0.2 mg/L
Carotenoid: Adonirubin [8]: 14.3 mg/L
Carotenoid: Adonixanthin [8]: 0.7 mg/L
Carotenoid: Astaxanthin [8]: 14.2 mg/L
Carotenoid: Asteroidenone [8]: 0.1 mg/L
Carotenoid: Canthaxanthin [8]: 8.1 mg/L
Carotenoid: Echinenone [8]: 1.4 mg/L
Carotenoid: β-Carotene [8]: 0.7 mg/L
OD610 [8]: 33
Total carotenoid [8]: 39.7 mg/L
Carotenoid: 3-Hydroxyechinenone [9]: 0.1 mg/L
Carotenoid: Adonirubin [9]: 11.9 mg/L
Carotenoid: Adonixanthin [9]: 0.3 mg/L
Carotenoid: Astaxanthin [9]: 9.3 mg/L
Carotenoid: Asteroidenone [9]: 0.1 mg/L
Carotenoid: Canthaxanthin [9]: 9.9 mg/L
Carotenoid: Echinenone [9]: 2.0 mg/L
Carotenoid: β-Carotene [9]: 0.8 mg/L
OD610 [9]: 31
Total carotenoid [9]: 34.4 mg/L
Carotenoid: 3-Hydroxyechinenone [10]: 0.1 mg/L
Carotenoid: Adonirubin [10]: 6.5 mg/L
Carotenoid: Adonixanthin [10]: 0.2 mg/L
Carotenoid: Astaxanthin [10]: 1.9 mg/L
Carotenoid: Asteroidenone [10]: 0.1 mg/L
Carotenoid: Canthaxanthin [10]: 9.4 mg/L
Carotenoid: Echinenone [10]: 2.8 mg/L
Carotenoid: β-Carotene [10]: 1.2 mg/L
OD610 [10]: 23
Total carotenoid [10]: 22.2 mg/L
Carotenoid: 3-Hydroxyechinenone [11]: 0.0 mg/L
Carotenoid: Adonirubin [11]: 0.2 mg/L
Carotenoid: Adonixanthin [11]: 0.0 mg/L
Carotenoid: Astaxanthin [11]: 0.1 mg/L
Carotenoid: Asteroidenone [11]: 0.0 mg/L
Carotenoid: Canthaxanthin [11]: 0.1 mg/L
Carotenoid: Echinenone [11]: 0.0 mg/L
Carotenoid: β-Carotene [11]: 0.0 mg/L
OD610 [11]: 3
Total carotenoid [11]: 0.4 mg/L
